# From patent US20260337125A1, “RADIOLABELED TYROSINE DERIVATIVE AND APPLICATION THEREOF” (Osaka University, priority 2022, published 2026)
# Key:
# [1] = TLC analysis of stability after purification; format: physicochemical; details: 24 hours after purification, in sodium ascorbate aqueous solution (final concentration 1%)
# Description: The crude product solution (1 μL) was analyzed by thin-layer chromatography (TLC). The sample was spotted on a thin-layer plate (silica gel 60F254), and a mixed solvent of acetonitrile/water (2/1) was used as a developing solvent. The thin-layer plate was exposed to an imaging plate (BAS IP MS 2025E, GE Healthcare) for about 15 min, and then analyzed by a bioimage analyzer (Tyhoon™ FLA-7000, Cytiva). The results are shown in FIG. 2. ^211At-AAMT-OMe in the crude product solution was detected at Rf 0.80, and the radiochemical yield (RCY) was 81.3%.
# (§1) The crude product solution was injected into an HLB column (Oasis, WAT-186005125) equilibrated with sterile distilled water (1 mL) to capture the target product in the cartridge, and sterile distilled water was passed through the cartridge to elute impurities. Next, 30% ethanol solution (500 μL) was passed through the cartridge to elute the target product into sodium ascorbate aqueous solution (500 μL, final concentration 1%), thus obtaining the purified product. The radiochemical yield and radiochemical purity of the purified product were 81% and 98%, respectively.
# Before purification, immediately after production, 3 hours after production, and 24 hours after production, ^211At-AAMT-OMe was analyzed by thin-layer chromatography (TLC) in the same manner as described above.
# as §1, with “product. This purified product was analyzed by thin-layer chromatography (TLC) in the same manner as described above.” for “product.”, “79.6%” for “81%”, “99.9%,” for “98%,”
# 24 hours after production, (R)-^211At-AAMT-OMe was analyzed by thin-layer chromatography (TLC) in the same manner as described above.
# as §1, with “product. This purified product was analyzed by thin-layer chromatography (TLC) in the same manner as described above.” for “product.”, “75.9%” for “81%”, “99.27%,” for “98%,”
# 24 hours after production, ^211At-AAMT-OEt was analyzed by thin-layer chromatography (TLC) in the same manner as described above.
# The crude product solution was injected into an HLB column (Oasis, WAT-186005125) equilibrated with sterile distilled water (1 mL) to capture the target product in the cartridge, and sterile distilled water was passed through the cartridge to elute impurities. […] This purified product was analyzed by thin-layer chromatography (TLC) in the same manner as described above. […]
# 24 hours after production, ^211At-AAMT-OPr was analyzed by thin-layer chromatography (TLC) in the same manner as described above. […]
# HEK293-hLAT1 = HEK293-hLAT1 (Homo sapiens, UniProt Q01650); test: Cellular uptake test (Using HEK293); format: cell-based; details: inhibitor added 15 minutes before; BCH 20 mM or unlabeled AMT 1 μg/mL
# Description: • Cells to be Used: HEK293-Mock, HEK293-hLAT1, HEK293-hLAT2 (HEK293: Human Embryonic Kidney cells 293) • Culture medium to be used: E-MEM (containing 10% FBS, 1% P/S, 1% NEAA)
# (§2) Two days before a test day, a cell suspension was prepared in such a manner that the concentration of predetermined cells was 1×10^5 cells/mL. The cell suspension was seeded in a 24-well multiculture plate at a volume of 0.5 mL per well. On the day of the test, cultures were confirmed to be subconfluent (which refers to a state where 70-80% of the well is covered in density). The cells were washed twice with warmed PBS(-) Buffer (166-23555, FUJIFILM Wako Pure Chemical Corporation), the culture medium was replaced with HBSS(-) Buffer (085-09355, FUJIFILM Wako Pure Chemical Corporation), and the plate was left to stand in an incubator (MINIcell-35, WakenBtech Co., Ltd) until an RI addition test.
# (§3) ^211At-AAMT-OMe or ^211At-AAMT was added to the prepared cells at 10 μL/well. BCH (LAT1 inhibitor, 20 mM) or unlabeled AMT (α-methyl tyrosine, 1 μg/mL) was previously (15 minutes before) added ([…]). The cells were cultured (CO2 5%, 37 °C), and after 30 minutes, the liquid was removed by suction using an aspirator. The cells were washed twice with PBS(-). The cells were lysed by adding 0.1N NaOH to obtain a lysate, and the radioactivity of the lysate was measured using a γ counter. After the radioactivity measurement, the lysate was loaded into a 96-well plate at a volume of 10 μL per well, the protein amount was measured by the BCA method, and the number of cells was corrected based on the protein amount. Absorbance was measured by MultiScanFC (Thermo Fisher). The uptake level of ^211At-AAMT-OMe or ^211At-AAMT into the cells (number of radioactivity counts/protein amount) was calculated.
# [2] = system: CDDP-resistant A549 (A549 CDDP-r); test: Cell viability of CDDP-resistant A549 (A549 CDDP-r) with CDDP; format: cell-based, human; details: CDDP 100 μg/mL
# Description: Cisplatin (CDDP) was added to a human lung cancer cell line, A549 at an initial concentration of 1 μg/mL. After 3 days, dead cells were removed, and CDDP was again added. Cells that grew like A549 even in the presence of CDDP were isolated and maintained for 3 months while gradually increasing the concentration of CDDP in a culture medium.
# [3] = Measurement of accumulated amounts of 211At-labeled compounds in PANC1 tumor-bearing mice; format: in vivo, human (PANC1) in Balb/c-nu/nu mice; details: tumor, iv, 0.1 MBq/animal, 0.1 MBq/0.2 mL per mouse, tail vein, read-out: tumor accumulation; for tissue uptake at 10 min: 10 minutes after administration; for tissue uptake at 1 h: 1 hour after administration
# Description: (§4) Radiation doses before and after the administration were measured, and a difference between them was defined as an injected dose (ID). Ten minutes and one hour after administration, the mice were anesthetized by isoflurane inhalation, the tumors were isolated by autopsy in chronological order, and their radiation doses and weights were measured using a gamma counter (2480 Wizard^2, PerkinElmer) and a semimicro scale (Shimadzu Corporation, readability 10 μg), respectively. For comparison between accumulated amounts, accumulated amounts per unit amount (% ID/g) were calculated.
# (§5) In Table 1, the amounts of the ^211At-labeled compounds accumulated in tumors of the PANC1 tumor-bearing models (% ID/g) are shown. It should be noted that in Table 1, “OMe” is ^211At-AAMT-OMe, “OEt” is ^211At-AAMT-OEt, “OPr” is ^211At-AAMT-OPr, and “OH” is ^211At-AAMT.
# PANC1 tumor = test: as above; format: in vivo, human (PANC1) in Balb/c-nu/nu mice; details: for accumulation in the tumor sites compared to 211At-AAMT: 10 minutes and 1 hour after administration, tail vein; for retention at tumor sites: compared to 211At-AAMT
# Description: as §4, §5
# PANC1 = test: Cellular uptake test (Using PANC1); format: cell-based, human; details: for uptake speed: PANC1 cells, uptake level immediately after addition
# Description: • Cells to be used: PANC1 • Culture medium to be used: D-MEM (containing 10% FBS, 1% P/S)
# as §2, with “cells/mL in the same manner as in Test Example 1.” for “cells/mL.”
# as §3, with “^211At-AAMT-OMe, ^211At-AAMT-OEt, ^211At-AAMT-OPr, or” for “^211At-AAMT-OMe or”, “of ^211At-AAMT-OMe, ^211At-AAMT-OEt, ^211-At-AAMT-OPr,” for “of ^211At-AAMT-OMe”
# [4] = system: human pancreatic cancer cell line (PANC1); format: in vivo, human (PANC1) in Balb/c-nu/nu mice; details: 1 MBq/0.2 mL per mouse, tail vein
# From the text: The experiment was terminated 21 days after administration.
# [5] = system: gemcitabine-resistant human pancreatic cancer cell line, PANC1 (PANC1 Gem-r); test: Cell viability of Gemcitabine-resistant PANC1 (PANC1 Gem-r) with gemcitabine; format: cell-based; details: gemcitabine 30 μg/mL
# Description: Gemcitabine (Gem) was added to a human pancreatic cancer cell line, PANC1 at an initial concentration of 100 ng/mL. After 3 days, dead cells were removed, and gemcitabine was again added. Cells that grew like a human pancreatic cancer cell line, PANC1 even in the presence of gemcitabine were isolated and maintained for 3 months while gradually increasing the concentration of gemcitabine in a culture medium.
# [6] = up to 21 days after administration
# HEK293-hLAT1, sequence (Q01650 whole entry): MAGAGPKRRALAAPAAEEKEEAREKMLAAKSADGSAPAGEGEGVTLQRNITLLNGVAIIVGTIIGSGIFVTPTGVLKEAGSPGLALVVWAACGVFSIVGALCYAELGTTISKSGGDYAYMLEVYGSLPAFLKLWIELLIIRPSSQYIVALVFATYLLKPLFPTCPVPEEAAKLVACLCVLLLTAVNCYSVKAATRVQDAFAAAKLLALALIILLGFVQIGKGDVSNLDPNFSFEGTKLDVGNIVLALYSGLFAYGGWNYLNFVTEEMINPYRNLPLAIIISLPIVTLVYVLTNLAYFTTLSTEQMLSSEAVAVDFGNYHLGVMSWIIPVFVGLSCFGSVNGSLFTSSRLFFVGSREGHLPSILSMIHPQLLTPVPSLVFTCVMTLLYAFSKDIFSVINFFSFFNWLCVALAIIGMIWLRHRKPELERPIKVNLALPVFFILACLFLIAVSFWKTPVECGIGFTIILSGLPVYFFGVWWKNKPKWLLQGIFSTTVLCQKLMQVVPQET
# HEK293-hLAT1, sequence (P08195 102-630 partner): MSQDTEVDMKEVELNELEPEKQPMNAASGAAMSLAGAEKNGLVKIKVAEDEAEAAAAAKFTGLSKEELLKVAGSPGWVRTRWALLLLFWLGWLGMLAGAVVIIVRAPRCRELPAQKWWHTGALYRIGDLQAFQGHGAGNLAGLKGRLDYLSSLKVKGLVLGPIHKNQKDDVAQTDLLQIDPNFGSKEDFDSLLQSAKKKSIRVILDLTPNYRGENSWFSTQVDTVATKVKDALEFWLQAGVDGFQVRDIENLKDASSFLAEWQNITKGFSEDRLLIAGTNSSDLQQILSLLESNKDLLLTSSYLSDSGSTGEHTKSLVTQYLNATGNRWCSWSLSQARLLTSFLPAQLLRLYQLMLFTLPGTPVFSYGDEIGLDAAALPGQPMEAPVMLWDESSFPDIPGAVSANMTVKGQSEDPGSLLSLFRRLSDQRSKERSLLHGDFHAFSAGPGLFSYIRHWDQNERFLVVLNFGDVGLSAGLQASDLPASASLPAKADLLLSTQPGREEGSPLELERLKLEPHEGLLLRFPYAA
compound,measurement,setting,value
"COc1ccc(C[C@@](C)(N)C(=O)O)cc1[At] [(R)-^211At-AAMT-OMe, (R)-3-astato(^211At)—O-methyl-α-methyltyrosine]",decomposition by TLC,[1],no decomposition
"C[C@](N)(Cc1ccc(O)cc1)C(=O)O [AMT, α-methyl tyrosine, reference compound]",inhibition of uptake of 211At-AAMT-OMe into HEK293-hLAT1 cells,HEK293-hLAT1,significantly inhibited
"NC1(C(=O)O)CC2CCC1C2 (stereo not shown) [BCH, 2-aminobicyclo[2,2,1]heptane-2-carboxylic acid, reference compound]",inhibition of uptake of 211At-AAMT-OMe into HEK293-hLAT1 cells,HEK293-hLAT1,significantly inhibited
"[NH2][Pt]([NH2])([Cl])[Cl] [CDDP, Cisplatin]",cell viability,[2],still alive even at 100 μg/mL
"COc1cc(C[C@](C)(N)C(=O)O)ccc1[At] [^211At-AAMPhe-OMe, (S)-α-methyl-4-astato(^211At)-3-methoxyphenylalanine]",decomposition by TLC,[1],no decomposition
same,tissue uptake at 10 min,[3],3.77 %ID/g
same,tissue uptake at 1 h,[3],6.38 %ID/g
same,accumulation in the tumor sites compared to 211At-AAMT,PANC1 tumor,more highly accumulated in the tumor sites than ^211At-AAMT
"CCOc1ccc(C[C@](C)(N)C(=O)O)cc1[At] [^211At-AAMT-OEt, (S)-3-astato(^211At)—O-ethyl-α-methyltyrosine]",uptake level into cells (number of radioactivity counts/protein amount),PANC1,comparable or superior
same,uptake speed,PANC1,comparable or superior
same,decomposition by TLC,[1],no decomposition
same,apparent toxicity,[4]; 21 days,apparent toxicity induced by their administration was not observed
same,lesions other than tumor at autopsy,[4]; 21 days,lesions other than tumor were not observed
same,mouse body weight,[4]; [6],gently increased
same,tumor growth inhibiting effect,[4]; [6],comparable to that of the ^211At-AAMT-OMe administration group
same,tissue uptake at 10 min,[3],4.21 %ID/g
same,tissue uptake at 1 h,[3],3.59 %ID/g
same,accumulation in the tumor sites compared to 211At-AAMT,PANC1 tumor,more highly accumulated in the tumor sites than ^211At-AAMT
same,retention at tumor sites,PANC1 tumor,superior retention at tumor sites compared to ^211At-AAMT
"CCCOc1ccc(C[C@](C)(N)C(=O)O)cc1[At] [^211At-AAMT-OPr, (S)-3-astato(^211At)—O-propyl-α-methyltyrosine]",uptake level into cells (number of radioactivity counts/protein amount),PANC1,comparable or superior
same,uptake speed,PANC1,comparable or superior
same,decomposition by TLC,[1],no decomposition
same,tissue uptake at 10 min,[3],5.91 %ID/g
same,tissue uptake at 1 h,[3],9.45 %ID/g
same,accumulation in the tumor sites compared to 211At-AAMT,PANC1 tumor,more highly accumulated in the tumor sites than ^211At-AAMT
same,"tumor accumulation, ranking",PANC1 tumor; 1 hour after administration,most highly accumulated 1 hour after administration
same,retention at tumor sites,PANC1 tumor,superior retention at tumor sites compared to ^211At-AAMT
"Nc1ccn([C@@H]2O[C@H](CO)[C@@H](O)C2(F)F)c(=O)n1 [gemcitabine, Gemcitabine]",cell viability,[5],still alive even at 30 μg/mL
